Experimental data published in US20250066353A1, “VANIN-1 INHIBITORS” (ATHOS THERAPEUTICS, INC., priority 2023, published 2025).
pIC50: −log10 of the molar value. Like-named read-outs stand apart in the source and are kept apart here.

How the values were obtained:
Vanin-1 = Vanin-1 (Homo sapiens (Human), UniProt O95497); assay: VNN1 inhibitor binding assay (Pantothenate-AMC fluorescence); assay type: biochemical; settings: for potency (half-maximal inhibitory concentration) compared to RR6: comparison with reference compound RR6
Sequence of Vanin-1 (O95497 22-513): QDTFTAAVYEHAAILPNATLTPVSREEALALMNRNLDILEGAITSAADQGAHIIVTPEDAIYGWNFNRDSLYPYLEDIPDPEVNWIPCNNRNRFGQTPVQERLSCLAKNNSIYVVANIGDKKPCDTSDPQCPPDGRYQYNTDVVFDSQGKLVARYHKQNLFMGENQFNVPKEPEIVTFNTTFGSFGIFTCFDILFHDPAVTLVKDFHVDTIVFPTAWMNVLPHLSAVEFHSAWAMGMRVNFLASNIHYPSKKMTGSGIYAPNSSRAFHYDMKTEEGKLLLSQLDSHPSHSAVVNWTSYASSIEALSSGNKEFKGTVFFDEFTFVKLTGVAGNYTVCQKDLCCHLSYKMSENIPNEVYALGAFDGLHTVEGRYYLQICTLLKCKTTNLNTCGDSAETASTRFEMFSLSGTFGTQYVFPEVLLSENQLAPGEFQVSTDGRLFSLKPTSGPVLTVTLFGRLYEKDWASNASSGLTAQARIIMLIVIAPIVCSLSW
Procedure: Vanin-1 inhibitor binding assays for selected compounds as described herein, and reference compound RR6 (also “(R)-2,4-dihydroxy-3,3-dimethyl-N-(3-oxo-4-phenylbutyl)butanamide”) were examined and the IC50 values of were determined.
5 μL of 3× (45 μM) of Pantothenate-AMC to achieve final concentrations of 15 μM (0.25% DMSO final) were added in a 384 well assay plate followed by the addition of 5 μL of 3× the desired concentration of the tested compounds (Compound 1; Compound 2; and RR6) in 0.75% DMSO to designated wells (0.25% of DMSO final). The range of the compound concentrations tested was 10, 3.33, 1.11, 0.37, 0.12, 0.04, 0.01, 0.0046, 0.001, and 0.0005 μM. 5 μL of 0.75% DMSO were also added to positive and negative control wells.
5 μL of 1.4 ng/μL Vanain-1 was added to the assay plate to achieve a final amount of 7 ng/well, and covered with plate sealer. Another 5 μL of assay buffer was added to negative controls and the assay plate was then centrifuged briefly (1000 rpm for 30 s) in a plate centrifuge. The assay plate was incubated in the dark for 20 minutes at room temperature and immediately read on an Envision 2105, PerkinElmer multimode plate reader.
The fluorescence read was captured at excitation wavelength of 355 nm and emission wavelength of 460 nm. Percent inhibition of the test compounds was calculated using the following equation: […]
In the above equation, “A” is the relative fluorescence units of the test compound (test compound+Pantothenate-AMC+Vanin1); “B” is the relative fluorescence units of the average minimum (DMSO+Pantothenate-AMC+assay buffer); and “C” is the relative fluorescence units of the average maximum (DMSO+Pantothenate-AMC+Vanin1).

PAMPA permeability assay = assay type: in vitro ADME; settings: for Papp at 5 h, 20 µM: 20 μM donor in PBS/MeOH 90:10, 5 hours at room temperature; for permeability compared to non-deuterated counterparts: deuterated vs non-deuterated (Compounds 37 and 73, respectively)
From the text: Parallel artificial membrane permeability (PAMPA) assay is a non-cell based assay designed to predict in vivo biological membrane permeability of drugs in early stage of drug discovery. The 96-well Corning Gentest Pre-coated PAMPA Plate System (catalog no. 353015) was used to perform the assay. The Corning Gentest Pre-coated PAMPA plate system was designed by 96-well insert system with a […] PVDF (polyvinylidene fluoride) filter plate which has been pre-coated with structured tri-layers of phospholipids (lipid/oil/lipid) and a matched receiver microplate.
Donor solutions of test compounds (300 μL, 20 μM in PBS/MeOH 90:10) were added to each well of the donor plate. 200 μL of PBS/MeOH 90:10 was added to each well of the acceptor plate. The acceptor plate was coupled with the donor plate and incubated for 5 hours at room temperature (RT) without agitation. In each plate, compounds were tested in triplicate. At the end of the incubation, drug concentration in the initial donor solution, acceptor and the donor wells were determined using LC/MS/MS. A five (5) points standard curve from 0.1 to 1000 nM for each test compound were prepared. Analyte samples were diluted to within standard curve concentration with ACN/H2O 50:50 prior analysis.
All samples were analyzed by electrospray ionization (ESI) liquid chromtograph/mass spectrometry (LC/MS) system utilizing Sciex 5500 quadropule ion trap (Qtrap) mass spectrometry with Shidmazu Nexera X2 UHPLC. The LC-MS/MS instrument monitored each of the test compound in the study based of their respective mass-to-charge (m/z) transitions and MS parameters. Chromatographic separation was achieved on Phenomenex Luna C18 column (50×2.0 mm, 3 μm particle size) by using a gradient elution: mobile phase A contains 0.1% formic acid in water and mobile phase B contains 0.1% formic acid in acetonitrile; A/B (99:1) from 0 to 1 minutes; to A/B (1:99) from 1 to 4 minutes; A/B (1:99) from 4 to 8 minutes; to A/B (99:1) from 8 to 8.20 minutes; A/B (99:1) from 8.2 to 9 minutes. The flow rate was 0.4 mL/min and the column temperature was maintained at 35° C. and autosampler temperature at 4° C. For detection, the electrospray ionization operated in the positive mode using multiple reaction monitoring (MRM).
Data acquisition, and peak integrations were obtained by Analyst® Version 1.7.1 (Sciex) operating with Windows® (Microsoft). The standard curve regressions and sample concentrations were generated and calculated by Analyst®. Concentrations in the sample solutions were determined based on the measured peak area ratios from the response of the analyte to the internal standard with reference to the standard calibration curve. All sample calculations were calculated using a linear regression with 1/x2 weighting (where x is the concentration of given calibration standard level).
Permeability of the test compounds was calculated using the following formula:
Where: • A=filter area=[…] • VA=acceptor well volume (0.2 mL) • VD=donor well volume […], • t=incubation time=5 hours=18000 seconds, • CA(t)=compound concentration in acceptor well at time t (nM), • CD(t)=compound concentration in donor well at time t (nM), and […]

[1] = 15 μM Pantothenate-AMC, 7 ng/well Vanin-1, 20 minutes at room temperature, read-out: Vanin-1 IC50

Row | SMILES | pIC50 (Vanin-1; [1]) | also measured
1 | CC(C)(CO)[C@@H](O)C(=O)NCCC(=O)Cc1ccccc1 [RR6, (R)-2,4-dihydroxy-3,3-dimethyl-N-(3-oxo-4-phenylbutyl)butanamide, reference compound] |  | pIC50 (Vanin-1): 5.00 to 6.00
2 | CC(=O)NCCN1Cc2nc(NCc3ccc(C#N)nc3)ccc2C1=O [Compound 40, N-(2-(2-(((6-cyanopyridin-3-yl)methyl)amino)-5-oxo-5,7-dihydro-6H-pyrrolo[3,4-b]pyridin-6-yl)ethyl)acetamide] | 5.00 to 6.00 | 
3 | CN(C)CCN1Cc2nc(NCc3cccnc3)ccc2C1=O [Compound 4, 6-(2-(Dimethylamino)ethyl)-2-((pyridin-3-ylmethyl)amino)-6,7-dihydro-5H-pyrrolo[3,4-b]pyridin-5-one] | 5.00 to 6.00 | 
4 | CCC(=O)NCCN1Cc2nc(NCc3c(F)cc(F)cc3F)ccc2C1=O [Compound 73, N-(2-(5-oxo-2-((2,4,6-trifluorobenzyl)amino)-5,7-dihydro-6H-pyrrolo[3,4-b]pyridin-6-yl)ethyl)propionamide] |  | Papp at 5 h, 20 µM (PAMPA permeability assay): 0.79 ×10⁻⁶ cm/s
5 | CC(=O)NCCCN1Cc2nc(NCc3cccnc3)ccc2C1=O [Compound 15, N-(3-(5-Oxo-2-((pyridin-3-ylmethyl)amino)-5,7-dihydro-6H-pyrrolo[3,4-b]pyridin-6-yl)propyl)acetamide] | 5.00 to 6.00 | 
6 | CC(=O)NC(C)(C)CN1Cc2nc(NCc3cccnc3)ccc2C1=O [Compound 38, N-(2-methyl-1-(5-oxo-2-((pyridin-3-ylmethyl)amino)-5,7-dihydro-6H-pyrrolo[3,4-b]pyridin-6-yl)propan-2-yl)acetamide] | 5.00 to 6.00 | 
7 | CN(C)CCCN1Cc2nc(NCc3cccnc3)ccc2C1=O [Compound 13, 6-(3-(Dimethylamino)propyl)-2-((pyridin-3-ylmethyl)amino)-6,7-dihydro-5H-pyrrolo[3,4-b]pyridin-5-one] | 5.00 to 6.00 | 
8 | O=C1c2ccc(NCc3cccnc3)nc2CN1Cc1cnccn1 [Compound 17] | 5.00 to 6.00 | 
9 | COc1ccc(F)cc1CNc1ccc2c(n1)CN(CCNC(C)=O)C2=O [Compound 29, N-(2-(2-((5-fluoro-2-methoxybenzyl)amino)-5-oxo-5,7-dihydro-6H-pyrrolo[3,4-b]pyridin-6-yl)ethyl)acetamide] | 5.00 to 6.00 | 
10 | CC(=O)NCCN1Cc2nc(NCc3ccncc3)ccc2C1=O [Compound 27, N-(2-(5-oxo-2-((pyridin-4-ylmethyl)amino)-5,7-dihydro-6H-pyrrolo[3,4-b]pyridin-6-yl)ethyl)acetamide] | 5.00 to 6.00 | 
11 | CC(=O)NCCN1Cc2nc(NCc3c(F)cc(F)cc3F)ccc2C1=O [Compound 37, N-(2-(5-oxo-2-((2,4,6-trifluorobenzyl)amino)-5,7-dihydro-6H-pyrrolo[3,4-b]pyridin-6-yl)ethyl)acetamide] |  | Papp at 5 h, 20 µM (PAMPA permeability assay): 0.68 ×10⁻⁶ cm/s
12 | O=C1NCc2nc(NCc3cccnc3)ccc21 [Compound 1, 2-((Pyridin-3-ylmethyl)amino)-6,7-dihydro-5H-pyrrolo[3,4-b]pyridin-5-one] |  | potency (half-maximal inhibitory concentration) compared to RR6 (Vanin-1): up to two orders of magnitude greater than RR6
13 | O=C1NCCc2nc(NCc3cccnc3)ccc21 [Compound 2, 2-((Pyridin-3-ylmethyl)amino)-7,8-dihydro-1,6-naphthyridin-5(6H)-one] | 5.00 to 6.00 | potency (half-maximal inhibitory concentration) compared to RR6 (Vanin-1): comparable to RR6
14 | COc1ccccc1CNc1ccc2c(n1)CN(CCNC(C)=O)C2=O [Compound 28, N-(2-(2-((2-methoxybenzyl)amino)-5-oxo-5,7-dihydro-6H-pyrrolo[3,4-b]pyridin-6-yl)ethyl)acetamide] | 5.00 to 6.00 | 
15 | [2H]C([2H])([2H])C([2H])([2H])C(=O)NCCN1Cc2nc(NCc3c(F)cc(F)cc3F)ccc2C1=O [Compound 204, N-(2-(5-oxo-2-((2,4,6-trifluorobenzyl)amino)-5,7-dihydro-6H-pyrrolo[3,4-b]pyridin-6-yl)ethyl)propenamide-d5] |  | Papp at 5 h, 20 µM (PAMPA permeability assay): 1.07 ×10⁻⁶ cm/s; permeability compared to non-deuterated counterparts (PAMPA permeability assay): improved permeability
16 | O=C1c2ccc(NCc3cccnc3)nc2CN1c1ccccc1 [Compound 11] | < 5.00 | 
17 | CC(C)N1Cc2nc(NCc3cccnc3)ccc2C1=O [Compound 19] | 5.00 to 6.00 | 
18 | CC(=O)NCCN1Cc2nc(NCc3cncc(F)c3)ccc2C1=O [Compound 26, N-(2-(2-(((5-fluoropyridin-3-yl)methyl)amino)-5-oxo-5,7-dihydro-6H-pyrrolo[3,4-b]pyridin-6-yl)ethyl)acetamide] | 5.00 to 6.00 | 
19 | [2H]C([2H])([2H])C(=O)NCCN1Cc2nc(NCc3c(F)cc(F)cc3F)ccc2C1=O [Compound 202, N-(2-(5-oxo-2-((2,4,6-trifluorobenzyl)amino)-5,7-dihydro-6H-pyrrolo[3,4-b]pyridin-6-yl)ethyl)acetamide-2,2,2-d3] |  | Papp at 5 h, 20 µM (PAMPA permeability assay): 1.83 ×10⁻⁶ cm/s; permeability compared to non-deuterated counterparts (PAMPA permeability assay): improved permeability
20 | CC(=O)NCCN1Cc2nc(N[C@H](C)c3cccnc3)ccc2C1=O [Compound 22, (R)—N-(2-(5-oxo-2-((1-(pyridin-3-yl)ethyl)amino)-5,7-dihydro-6H-pyrrolo[3,4-b]pyridin-6-yl)ethyl)acetamide] | < 5.00 | 
21 | CN(C)C(C)(C)CN1Cc2nc(NCc3cccnc3)ccc2C1=O [Compound 12, 6-(2-(Dimethylamino)-2-methylpropyl)-2-((pyridin-3-ylmethyl)amino)-6,7-dihydro-5H-pyrrolo[3,4-b]pyridin-5-one] | 5.00 to 6.00 | 

More lines, main results first:

Row | pIC50 (Vanin-1; [1]) | SMILES | also measured
22 | 5.00 to 6.00 | CC(=O)NCCN1Cc2nc(NCc3cnccn3)ccc2C1=O [Compound 50] | 
23 | 5.00 to 6.00 | CCC(=O)NCCN1Cc2nc(NCc3ccc(F)cc3C)ccc2C1=O [Compound 78, N-(2-(2-((4-fluoro-2-methylbenzyl)amino)-5-oxo-5,7-dihydro-6H-pyrrolo[3,4-b]pyridin-6-yl)ethyl)propionamide] | 
24 | 5.00 to 6.00 | CCC(=O)NCCN1Cc2nc(NCc3cnccc3C(F)(F)F)ccc2C1=O [Compound 74, N-(2-(5-oxo-2-(((4-(trifluoromethyl)pyridin-3-yl)methyl)amino)-5,7-dihydro-6H-pyrrolo[3,4-b]pyridin-6-yl)ethyl)propionamide] | 
25 | 5.00 to 6.00 | CC(=O)NCCN1Cc2nc(NCc3cc(F)c(F)c(F)c3)ccc2C1=O [Compound 71, N-(2-(5-oxo-2-((3,4,5-trifluorobenzyl)amino)-5,7-dihydro-6H-pyrrolo[3,4-b]pyridin-6-yl)ethyl)acetamide] | 
26 | < 5.00 | N#Cc1cncc(CNc2ccc3c(n2)CN(CCNC(=O)C2CC2)C3=O)c1 [Compound 43, N-(2-(2-(((5-cyanopyridin-3-yl)methyl)amino)-5-oxo-5,7-dihydro-6H-pyrrolo[3,4-b]pyridin-6-yl)ethyl)cyclopropanecarboxamide] | 
27 | 5.00 to 6.00 | CCC(=O)NCCN1Cc2nc(NCc3cc(F)c(F)c(F)c3)ccc2C1=O [Compound 72, N-(2-(5-oxo-2-((3,4,5-trifluorobenzyl)amino)-5,7-dihydro-6H-pyrrolo[3,4-b]pyridin-6-yl)ethyl)propionamide] | 
